# From PMC10253456, “Investigating the Contribution of Major Drug-Metabolising Enzymes to Possum-Specific Fertility Control” (International Journal of Molecular Sciences, 2023)
# Read-outs that look alike come from different tables or passages of the source.
# What was measured:
# mice = settings: EE2 5 µg/kg/day; cited from earlier work
# [1] = test system: fathead minnows (Pimephales promelas); design: method as in PMID 17517636; settings: EE2 5–6 ng/L; cited from earlier work
# [2] = test system: UGT2B4, UGT2B7, UGT2B15, and UGT2B17; settings: cited from earlier work
# [3] = test system: UGT isoforms of the UGT1 and UGT2B families; design: method as in PMID 25008344; settings: pooled human liver and intestinal microsomes; read-out: concentration reducing glucuronidation of 4-methylumbelliferone by ~50% of the control; cited from earlier work
# CYP3A [4] = test: CYP3A catalytic activity (erythromycin N-demethylation) in pooled human liver microsomes; settings: for CYP3A catalytic activity, % of the control: at both estimated IC50 and 2-fold IC50 values (ketoconazole 2.5 and 5 µM)
# UGT2B [5] = settings: avian; for % of control (UGT2B4 catalytic activity at 2-fold IC50) / UGT2B4 catalytic activity at 2-fold IC50: compound at estimated 2-fold IC50
# UGT2B [6] = test: p-nitrophenol glucuronidation activity in mouse liver microsomes; settings: for % of control (UGT2B4 catalytic activity at 2-fold IC50) / UGT2B4 catalytic activity at 2-fold IC50: mouse, compound at estimated 2-fold IC50
# UGT2B [7] = test: p-nitrophenol glucuronidation activity in possum liver microsomes; format: biochemical, possum (Trichosurus vulpecula); settings: for p-nitrophenol glucuronidation (UGT2B) activity, % of the control: at estimated IC50 and 2-fold IC50 values; for % of control (UGT2B4 catalytic activity at 2-fold IC50) / UGT2B4 catalytic activity at 2-fold IC50: compound at estimated 2-fold IC50
# CYP3A [8] = test: CYP3A catalytic activity (erythromycin N-demethylation) in mouse liver microsomes; settings: for Percent control catalytic activity at estimated IC50 / Percent control catalytic activity at estimated 2-fold IC50: mouse liver microsomes, initial screen n=1; for Percent control catalytic activity at estimated IC50: compounds without reported IC50 at 1 µM; for CYP3A catalytic activity, % of the control: at both estimated IC50 and 2-fold IC50 values (ketoconazole 2.5 and 5 µM); for Percent control catalytic activity at estimated 2-fold IC50: compounds without reported IC50 at 5 µM
# [9] = test system: cineole metabolism in wild possum liver microsomes; design: method as in PMID 12593759; settings: 5 µM ketoconazole; cited from earlier work
# UGT2B [10] = test: p-nitrophenol glucuronidation activity in pooled human liver microsomes; settings: for % of control (UGT2B4 catalytic activity at 2-fold IC50) / UGT2B4 catalytic activity at 2-fold IC50: pooled human liver microsomes, compound at estimated 2-fold IC50
# CYP3A [11] = test: CYP3A catalytic activity with midazolam and triazolam as substrates; settings: erythromycin vs midazolam and triazolam
# CYP3A [12] = test: CYP3A catalytic activity (erythromycin N-demethylation) in possum liver microsomes; settings: for Percent control catalytic activity at estimated IC50 / Percent control catalytic activity at estimated 2-fold IC50: possum liver microsomes, initial screen n=1; for Percent control catalytic activity at estimated IC50: compounds without reported IC50 at 1 µM; for Percent control catalytic activity at estimated 2-fold IC50: compounds without reported IC50 at 5 µM
# [13] = test system: erythromycin N-demethylation; design: method as in PMID 15342469; settings: pooled human liver microsomes; read-out: concentration reducing erythromycin N-demethylation by ~50% of the control; cited from earlier work
# UGT2B (heading: UGT2B4) [14] = test: p-nitrophenol glucuronidation activity in possum liver microsomes; format: biochemical, possum (Trichosurus vulpecula); settings: possum (Trichosurus vulpecula)
# UGT2B (heading: UGT2B4) [15] = test: in vitro; settings: human, pH 7.4
# UGT2B (heading: UGT2B4) [16] = test: in vitro; settings: BALB/c, mouse, pH 7.4
# UGT2B (heading: UGT2B4) [17] = test: in vitro; settings: avian (mallards and a swan), pH 7.4
# testosterone metabolism = test system: testosterone metabolism; design: method as in PMID 19336903; settings: pooled human liver microsomes; cited from earlier work
# CYP3A [18] = settings: avian
# [19] = liver microsomes, pH 7.4, probe p-nitrophenol (0.5 mM final, from 50 µL of 5 mM in 500 µL), compound at estimated IC50, read-out: % of control (UGT2B4 catalytic activity at IC50)
# [20] = compound at estimated 2-fold IC50 (5 µM where none reported)
# [21] = mouse, compound at estimated 2-fold IC50 (5 µM where none reported)
# [22] = possum, compound at estimated 2-fold IC50 (5 µM where none reported)
smiles,measurement,setting,value
"C#C[C@]1(O)CC[C@H]2[C@@H]3CCc4cc(O)ccc4[C@H]3CC[C@@]21C [EE2, ethinylestradiol]",effect of developmental exposure on behaviour,mice,behavioural masculinisation
same,effect of exposure on fish,[1],feminisation of male fathead minnows
CC(C)(c1ccc(O)cc1)c1ccc(O)cc1 [bisphenol A],type of inhibition,[2]; UGT2B4,competitive
same,type of inhibition,"[2]; UGT2B7, UGT2B15, and UGT2B17",non-competitive
COc1cc([C@@H]2Oc3cc([C@H]4Oc5cc(O)cc(O)c5C(=O)[C@@H]4O)ccc3O[C@H]2CO)ccc1O [silybin B],IC50,[3],87 µM
CC(=O)N1CCN(c2ccc(OCC3COC(Cn4ccnc4)(c4ccc(Cl)cc4Cl)O3)cc2)CC1 (stereo not shown) [Ketoconazole],"CYP3A catalytic activity, % of the control",CYP3A [4],80 % of the control
same,"p-nitrophenol glucuronidation (UGT2B) activity, % of the control",UGT2B [5]; at estimated IC50 and 2-fold IC50 values,did not significantly reduce UGT2B activity to less than 50% of the control
same,"p-nitrophenol glucuronidation (UGT2B) activity, % of the control",UGT2B [6],did not significantly reduce UGT2B activity to less than 50% of the control
same,"p-nitrophenol glucuronidation (UGT2B) activity, % of the control",UGT2B [7],did not significantly reduce UGT2B activity to less than 50% of the control
same,"p-nitrophenol glucuronidation (UGT2B) activity, % of the control",UGT2B [7]; listed as ketoconazole,> 65 % of the control
same,Percent control catalytic activity at estimated IC50,CYP3A [8],78 percent control
same,"CYP3A catalytic activity, % of the control",CYP3A [8]; mouse,< 50 % of the control
same,"formation of all hydroxycineole metabolites (9-, 3-, 7-hydroxycineole), % of the control",[9],approximately 25 % of the control
same,"p-nitrophenol glucuronidation (UGT2B) activity, % of the control",UGT2B [10],did not significantly reduce UGT2B activity to less than 50% of the control
same,change in the inhibition of the CYP3A enzyme due to substrate choice (present study vs reported study),CYP3A [11],> 100 fold
same,Percent control catalytic activity at estimated IC50,CYP3A [12],76 percent control
same,reduction of catalytic activity of possum CYP3A compared to the control,"CYP3A [12]; possum, ketoconazole 5 µM, not statistically significant",approximately 27%
same,IC50,[13],0.07 µM
COc1cc([C@@H]2Oc3ccc([C@H]4Oc5cc(O)cc(O)c5C(=O)[C@@H]4O)cc3O[C@H]2CO)ccc1O [isosilybin B],IC50,[3],187 µM
CC(C)=CCC[C@](C)(O[C@@H]1O[C@H](CO)[C@@H](O)[C@H](O)[C@H]1O)[C@H]1CC[C@]2(C)[C@@H]1[C@H](O)C[C@@H]1[C@@]3(C)CC[C@H](O)C(C)(C)[C@@H]3[C@@H](O)C[C@]12C [Ginsenoside F1],% of control (UGT2B4 catalytic activity at 2-fold IC50),UGT2B [5],99 % of control
same,UGT2B4 catalytic activity at 2-fold IC50,UGT2B [5],0.66 ± 0.14 µmol/mg/min
same,% of control (UGT2B4 catalytic activity at 2-fold IC50),UGT2B [6],157 % of control
same,UGT2B4 catalytic activity at 2-fold IC50,UGT2B [6],4.36 ± 0.01 µmol/mg/min
same,% of control (UGT2B4 catalytic activity at 2-fold IC50),UGT2B [7],109 % of control
same,UGT2B4 catalytic activity at 2-fold IC50,UGT2B [7],4.14 ± 0.18 µmol/mg/min
same,activity at 30 min,UGT2B (heading: UGT2B4) [14]; [19],100%
same,Percent control catalytic activity at estimated IC50,CYP3A [8],82 percent control
same,activity,UGT2B (heading: UGT2B4) [15],101%
same,% of control (UGT2B4 catalytic activity at 2-fold IC50),UGT2B [10],100 % of control
same,UGT2B4 catalytic activity at 2-fold IC50,UGT2B [10],4.01 µmol/mg/min
same,activity,UGT2B (heading: UGT2B4) [16],132%
same,Percent control catalytic activity at estimated IC50,CYP3A [12],120 percent control
same,activity at 30 min,UGT2B (heading: UGT2B4) [17],110%
O=c1cc(-c2ccccc2)oc2cc(O)ccc12 [7-Hydroxyflavone],"CYP3A catalytic activity, % of the control",CYP3A [4],> 83 % of the control
same,% of control (catalytic activity at 2-fold IC50),CYP3A [4]; [20],95 % of control
same,Catalytic activity at 2-fold IC50,CYP3A [4]; [20],0.61 nmol/mg/min
same,% of control (UGT2B4 catalytic activity at 2-fold IC50),UGT2B [5],92 % of control
same,UGT2B4 catalytic activity at 2-fold IC50,UGT2B [5],0.38 ± 0.12 µmol/mg/min
same,% of control (UGT2B4 catalytic activity at 2-fold IC50),UGT2B [6],101 % of control
same,UGT2B4 catalytic activity at 2-fold IC50,UGT2B [6],2.55 ± 0.18 µmol/mg/min
same,% of control (UGT2B4 catalytic activity at 2-fold IC50),UGT2B [7],101 % of control
same,UGT2B4 catalytic activity at 2-fold IC50,UGT2B [7],3.92 ± 0.02 µmol/mg/min
same,activity at 30 min,"UGT2B (heading: UGT2B4) [14]; pH 7.4, compound at estimated IC50, read-out: % of control (UGT2B4 catalytic activity at IC50)",100%
same,Percent control catalytic activity at estimated IC50,CYP3A [8],97 percent control
same,Percent control catalytic activity at estimated 2-fold IC50,CYP3A [8],97 percent control
same,"CYP3A catalytic activity, % of the control",CYP3A [8]; mouse,> 83 % of the control
same,% of control (catalytic activity at 2-fold IC50),CYP3A [8]; [21],90 % of control
same,Catalytic activity at 2-fold IC50,CYP3A [8]; [21],0.40 ± 0.04 nmol/mg/min
same,IC50,testosterone metabolism,> 100 µM
same,"CYP3A catalytic activity, % of the control",CYP3A [18]; at both estimated IC50 and 2-fold IC50 values (or 1 and 5 µM),> 83 % of the control
same,% of control (catalytic activity at 2-fold IC50),CYP3A [18]; [20],103 % of control
same,Catalytic activity at 2-fold IC50,CYP3A [18]; [20],0.42 ± 0.07 nmol/mg/min
same,activity,UGT2B (heading: UGT2B4) [16],100%
same,Percent control catalytic activity at estimated IC50,CYP3A [12],81 percent control
same,Percent control catalytic activity at estimated 2-fold IC50,CYP3A [12],78 percent control
same,"CYP3A catalytic activity, % of the control","CYP3A [12]; possum, at both estimated IC50 and 2-fold IC50 values (or 1 and 5 µM)",> 83 % of the control
same,% of control (catalytic activity at 2-fold IC50),CYP3A [12]; [22],95 % of control
same,Catalytic activity at 2-fold IC50,CYP3A [12]; [22],0.38 ± 0.08 nmol/mg/min
same,"reduced catalytic activity of possum CYP3A, % of the control","CYP3A [12]; possum, mainly at 5 µM or an estimated 2-fold IC50, not significantly different",~ 35 % of the control
same,activity at 30 min,UGT2B (heading: UGT2B4) [17],150%
CC(=O)O[C@H](CC=C(C)C)C1=CC(=O)c2c(O)ccc(O)c2C1=O [Acetylshikonin],% of control (UGT2B4 catalytic activity at 2-fold IC50),UGT2B [5],84 % of control
same,UGT2B4 catalytic activity at 2-fold IC50,UGT2B [5],0.53 ± 0.08 µmol/mg/min
same,% of control (UGT2B4 catalytic activity at 2-fold IC50),UGT2B [6],94 % of control
same,UGT2B4 catalytic activity at 2-fold IC50,UGT2B [6],2.92 ± 0.22 µmol/mg/min
same,% of control (UGT2B4 catalytic activity at 2-fold IC50),UGT2B [7],101 % of control
same,UGT2B4 catalytic activity at 2-fold IC50,UGT2B [7],3.70 ± 0.18 µmol/mg/min
same,activity at 30 min,UGT2B (heading: UGT2B4) [14]; [19],96%
same,Percent control catalytic activity at estimated IC50,CYP3A [8],100 percent control
same,Percent control catalytic activity at estimated 2-fold IC50,CYP3A [8],93 percent control
same,activity,UGT2B (heading: UGT2B4) [15],98%
same,% of control (UGT2B4 catalytic activity at 2-fold IC50),UGT2B [10],100 % of control
same,UGT2B4 catalytic activity at 2-fold IC50,UGT2B [10],3.70 µmol/mg/min
same,activity,UGT2B (heading: UGT2B4) [16],93%
same,Percent control catalytic activity at estimated IC50,CYP3A [12],128 percent control
same,Percent control catalytic activity at estimated 2-fold IC50,CYP3A [12],112 percent control
same,activity at 30 min,UGT2B (heading: UGT2B4) [17],87%
